Data as given in PubChem BioAssay AID248 (DTP/NCI, 2004).
“And” between values parts separate entries of the source, which are not always exact repeats. Equal values may be shown once. Toxic doses and inconclusive results are not listed. Cut-off read from the data, not from the text of the source: active = T/C of 150% or more; inactive = T/C below 125%.

Tested on: L1210 leukemia ip in BDF1 mice, survival T/C
Assay: NCI In Vivo Anticancer Drug Screen. Data for tumor model L1210 Leukemia (intraperitoneal) in B6D2F1 (BDF1) mice
Conditions: endpoint: mean survival time, higher = longer survival
How it was run: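 Ratio derived from survival: compound-dosed mice over vehicle-dosed mice, all bearing a transplantable tumor.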

[1] = dose: 100.0 mg/kg/injection, schedule: Q01DX001 (ip), vehicle: Klucel (hydroxypropylcellulose) (HPC)
[2] = dose: 100.0 mg/kg/injection, schedule: Q01DX009 (ip), vehicle: Klucel (hydroxypropylcellulose) (HPC)
[3] = dose: 200.0 mg/kg/injection, schedule: Q01DX001 (ip), vehicle: Klucel (hydroxypropylcellulose) (HPC)
[4] = dose: 200.0 mg/kg/injection, schedule: Q01DX009 (ip), vehicle: Klucel (hydroxypropylcellulose) (HPC)
[5] = dose: 400.0 mg/kg/injection, schedule: Q01DX001 (ip), vehicle: Klucel (hydroxypropylcellulose) (HPC)
[6] = dose: 400.0 mg/kg/injection, schedule: Q01DX009 (ip), vehicle: Klucel (hydroxypropylcellulose) (HPC)
[7] = dose: 100.0 mg/kg/injection, schedule: Q04DX003 (ip), vehicle: Klucel (hydroxypropylcellulose) (HPC)
[8] = dose: 200.0 mg/kg/injection, schedule: Q04DX003 (ip), vehicle: Klucel (hydroxypropylcellulose) (HPC)
[9] = dose: 400.0 mg/kg/injection, schedule: Q04DX003 (ip), vehicle: Klucel (hydroxypropylcellulose) (HPC)
[10] = dose: 100.0 mg/kg/injection, schedule: Q04DX003 (ip), vehicle: saline with Tween-80
[11] = dose: 200.0 mg/kg/injection, schedule: Q04DX003 (ip), vehicle: saline with Tween-80
[12] = dose: 400.0 mg/kg/injection, schedule: Q04DX003 (ip), vehicle: saline with Tween-80
[13] = dose: 100.0 mg/kg/injection, schedule: Q01DX001 (ip), vehicle: carboxymethylcellulose (CMC)
[14] = dose: 200.0 mg/kg/injection, schedule: Q01DX001 (ip), vehicle: carboxymethylcellulose (CMC)
[15] = dose: 400.0 mg/kg/injection, schedule: Q01DX001 (ip), vehicle: carboxymethylcellulose (CMC)
[16] = dose: 100.0 mg/kg/injection, schedule: Q01DX009 (ip), vehicle: saline with Tween-80
[17] = dose: 200.0 mg/kg/injection, schedule: Q01DX009 (ip), vehicle: saline with Tween-80
[18] = dose: 400.0 mg/kg/injection, schedule: Q01DX009 (ip), vehicle: saline with Tween-80

Measured: T/C

CCCCCCc1c(C)nc(N)[nH]c1=O
inactive: [1] 92 % of control | [2] 105 % of control | [3] 89 % of control | [4] 100 % of control | [5] 92 % of control | [6] 97 % of control

Cc1c(-c2ccccc2)oc2c(C(=O)OCCN3CCCCC3)cccc2c1=O
inactive: dose: 100.0 mg/kg/injection, schedule: Q01DX001 (ip), vehicle: saline 102 % of control | dose: 200.0 mg/kg/injection, schedule: Q01DX001 (ip), vehicle: saline 102 % of control | dose: 400.0 mg/kg/injection, schedule: Q01DX001 (ip), vehicle: saline 96 % of control

Nc1c(F)c(F)c(C(=O)O)c(F)c1F
inactive: dose: 100.0 mg/kg/injection, schedule: Q04DX002 (ip), vehicle: saline 94 % of control and 101 % of control | dose: 200.0 mg/kg/injection, schedule: Q04DX002 (ip), vehicle: saline 97 % of control and 107 % of control | dose: 800.0 mg/kg/injection, schedule: Q04DX002 (ip), vehicle: saline 100 % of control

CC(C)NP(=O)(NC(C)C)OC1CC(C)(C)N(O)C(C)(C)C1
inactive: dose: 6.25 mg/kg/injection, schedule: Q01DX001 (ip), vehicle: water 92 % of control | dose: 12.5 mg/kg/injection, schedule: Q01DX001 (ip), vehicle: water 96 % of control | dose: 25.0 mg/kg/injection, schedule: Q01DX001 (ip), vehicle: water 99 % of control | dose: 50.0 mg/kg/injection, schedule: Q01DX001 (ip), vehicle: water 94 % of control

COc1ccc(OC(=O)Nc2ccc(OC)cc2OC)cc1
inactive: [2] 97 % of control | [4] 104 % of control | [6] 96 % of control

C[CH2][Sn](/[CH]=C/C(C)(C)O)([CH2]C)[CH2]C
inactive: dose: 50.0 mg/kg/injection, schedule: Q01DX009 (ip), vehicle: saline 102 % of control | dose: 100.0 mg/kg/injection, schedule: Q01DX009 (ip), vehicle: saline 102 % of control

CCOC(=O)/C(Cc1cc[n+]([O-])c2ccccc12)=N/O
inactive: [2] 91 % of control | [7] 92 % of control | [4] 97 % of control | [8] 90 % of control | [6] 100 % of control | [9] 100 % of control

CCOC(=O)CSCc1cc(=O)[nH]c(=O)[nH]1
inactive: dose: 100.0 mg/kg/injection, schedule: Q04DX003 (ip), vehicle: saline 96 % of control | dose: 200.0 mg/kg/injection, schedule: Q04DX003 (ip), vehicle: saline 98 % of control | dose: 400.0 mg/kg/injection, schedule: Q04DX003 (ip), vehicle: saline 102 % of control

CN(C)C(=O)Sc1ccc([N+](=O)[O-])cc1
inactive: [10] 105 % of control | [11] 111 % of control | [12] 104 % of control

CCC(O)(COC(N)=O)c1ccccc1 (stereo not drawn)
inactive: [13] 97 % of control | [14] 108 % of control | [15] 94 % of control

Cc1c2ccccc2c(C)c2c1c(F)cc1ccccc12
inactive: dose: 37.5 mg/kg/injection, schedule: Q01DX001 (ip), vehicle: Klucel (hydroxypropylcellulose) (HPC) 120 % of control

O=C1C=CC(=O)N1C12CC3CC(CC(C3)C1)C2
inactive: dose: 12.5 mg/kg/injection, schedule: Q04DX002 (ip), vehicle: Klucel (hydroxypropylcellulose) (HPC) 98 % of control | dose: 25.0 mg/kg/injection, schedule: Q04DX002 (ip), vehicle: Klucel (hydroxypropylcellulose) (HPC) 105 % of control | dose: 50.0 mg/kg/injection, schedule: Q04DX002 (ip), vehicle: Klucel (hydroxypropylcellulose) (HPC) 94 % of control

NN(C(=O)c1ccccc1)c1ccccc1
inactive: dose: 75.0 mg/kg/injection, schedule: Q01DX001 (ip), vehicle: carboxymethylcellulose (CMC) 93 % of control | dose: 150.0 mg/kg/injection, schedule: Q01DX001 (ip), vehicle: carboxymethylcellulose (CMC) 98 % of control | dose: 300.0 mg/kg/injection, schedule: Q01DX001 (ip), vehicle: carboxymethylcellulose (CMC) 95 % of control

CCC(Cl)COP(=O)(CC(Cl)CC)OC(C)P(=O)(OCC(Cl)CC)OCC(Cl)CC (stereo not drawn)
inactive: [1] 101 % of control | [3] 121 % of control | [5] 97 % of control

CC(N)CNc1ccccc1 (stereo not drawn)
inactive: dose: 12.5 mg/kg/injection, schedule: Q04DX003 (ip), vehicle: water 105 % of control | dose: 25.0 mg/kg/injection, schedule: Q04DX003 (ip), vehicle: water 98 % of control | dose: 50.0 mg/kg/injection, schedule: Q04DX003 (ip), vehicle: water 104 % of control

COc1ccc2oc(C(=O)O)cc2c1
inactive: dose: 100.0 mg/kg/injection, schedule: Q04DX003 (ip), vehicle: acetone 101 % of control | dose: 200.0 mg/kg/injection, schedule: Q04DX003 (ip), vehicle: acetone 101 % of control | dose: 400.0 mg/kg/injection, schedule: Q04DX003 (ip), vehicle: acetone 101 % of control

Cc1cc([N+](=O)[O-])ccc1NC(=O)Nc1cccc(C(F)(F)F)c1
inactive: [2] 88 % of control | [4] 92 % of control | [6] 90 % of control

CC(C)(C)[CH2][Sn]([Cl])([CH2]C(C)(C)C)[CH2]C(C)(C)C
inactive: dose: 12.5 mg/kg/injection, schedule: Q04DX002 (ip), vehicle: saline with Tween-80 92 % of control

CCc1ccc(P(=O)(O)O)cc1
inactive: dose: 75.0 mg/kg/injection, schedule: Q01DX001 (ip), vehicle: saline 94 % of control | dose: 150.0 mg/kg/injection, schedule: Q01DX001 (ip), vehicle: saline 103 % of control | dose: 300.0 mg/kg/injection, schedule: Q01DX001 (ip), vehicle: saline 88 % of control

CCOC(=O)C(C)S(=O)(=O)/C(=C\N1CCCCC1)CC (stereo not drawn)
inactive: dose: 100.0 mg/kg/injection, schedule: Q04DX002 (ip), vehicle: Klucel (hydroxypropylcellulose) (HPC) 109 % of control | dose: 100.0 mg/kg/injection, schedule: Q04DX003 (ip), vehicle: other 104 % of control | dose: 200.0 mg/kg/injection, schedule: Q04DX002 (ip), vehicle: Klucel (hydroxypropylcellulose) (HPC) 98 % of control | dose: 200.0 mg/kg/injection, schedule: Q04DX003 (ip), vehicle: other 96 % of control | dose: 400.0 mg/kg/injection, schedule: Q04DX002 (ip), vehicle: Klucel (hydroxypropylcellulose) (HPC) 112 % of control | dose: 400.0 mg/kg/injection, schedule: Q04DX003 (ip), vehicle: other 102 % of control

CCCCCCCCCCCCCCCCCCNC(=O)CCl
inactive: [2] 94 % of control | [7] 92 % of control | [4] 89 % of control | [8] 90 % of control | [9] 97 % of control

CCOC(=O)c1ccc(NC(=S)NCc2cccnc2)cc1
inactive: [2] 106 % of control | [4] 97 % of control | [6] 102 % of control

CC(=O)C(C)(C)Cl
inactive: [16] 94 % of control | [17] 95 % of control | [18] 101 % of control

O=C1OC(=O)C2C3C=CC(C3)C12 (stereo not drawn)
inactive: dose: 12.5 mg/kg/injection, schedule: Q01DX009 (ip), vehicle: saline with Tween-80 97 % of control | dose: 25.0 mg/kg/injection, schedule: Q01DX009 (ip), vehicle: Klucel (hydroxypropylcellulose) (HPC) 100 % of control | dose: 25.0 mg/kg/injection, schedule: Q01DX009 (ip), vehicle: saline with Tween-80 100 % of control | dose: 50.0 mg/kg/injection, schedule: Q01DX001 (ip), vehicle: carboxymethylcellulose (CMC) 104 % of control | dose: 50.0 mg/kg/injection, schedule: Q01DX009 (ip), vehicle: Klucel (hydroxypropylcellulose) (HPC) 96 % of control | dose: 50.0 mg/kg/injection, schedule: Q01DX009 (ip), vehicle: saline with Tween-80 96 % of control | [13] 106 % of control and 96 % of control | [2] 105 % of control and 87 % of control | [16] 90 % of control | [7] 102 % of control | [10] 98 % of control | [14] 104 % of control and 91 % of control | [17] 92 % of control | [8] 89 % of control | [11] 98 % of control | [15] 95 % of control and 96 % of control | [18] 88 % of control | [12] 97 % of control

O=C(NCc1ccc([N+](=O)[O-])cc1)OCc1ccccc1
inactive: [2] 103 % of control | [7] 102 % of control | [4] 102 % of control | [8] 104 % of control | [6] 94 % of control | [9] 96 % of control

CC1(C)OCC(/C=C/C=N/Nc2ccc([N+](=O)[O-])cc2)O1 (stereo not drawn)
inactive: [10] 94 % of control | [11] 96 % of control | [12] 91 % of control
